Measurements: US6989384B2, “Antipicornaviral compounds and compositions, their pharmaceutical uses, and materials for their synthesis” (Agouron Pharmaceuticals, Inc., priority 2000, dated 2006)
Where two headings read alike, the source gives them in different places.

How the values were obtained:
[1] = test system: HRV-10; assay: Antirhinoviral H1-HeLa cell culture assay (cell protection, XTT), HRV-10; format: cell-based; settings: Human rhinovirus sp., HRV10, 48 h, HRV-10, H1-HeLa cells, two days
Protocol: (§1) In this cell protection assay, the ability of compounds to protect cells against HRV infection was measured by the XTT dye reduction method, which is described in Weislow et al., J. Natl. Cancer Inst. 1989, vol. 81, 577–586.
(§2) H1-HeLa cells were infected with HRV-14 at a multiplicity of infection (m.o.i.) of 0.13 (virus particles/cell) or mock-infected with medium only. Infected or mock-infected cells were resuspended at 8×10^5 cells per mL, and incubated with appropriate concentrations of the compounds to be tested. Two days later, XTT/PMS was added to test plates and the amount of formazan produced was quantified spectrophotometrically at 450/650 nm. The EC50 value was calculated as the concentration of compound that increased the percentage of formazan production in compound-treated, virus-infected cells to 50% of that produced by compound-free, mock-infected cells. The 50% cytotoxic dose (CC50) was calculated as the concentration of compound that decreased the percentage of formazan produced in compound-treated, mock-infected cells to 50% of that produced by compound-free, mock-infected cells.
(§3) All strains of human rhinovirus (HRV) for use in this assay were purchased from American Type Culture Collection (ATCC), except for HRV serotype-14 (produced from the infectious cDNA clone constructed by Dr. Robert Rueckert, Institute for Molecular Virology, University of Wisconsin, Madison, Wis.). HRV stocks were propagated and viral assays were performed in H1-HeLa cells (ATCC). Cells were grown in minimal essential medium with 10% fetal bovine serum, available from Life Technologies (Gaithersburg, Md.).
(§4) The compounds were tested against control compounds WIN 51711, WIN 52084, and WIN 54954 (obtained from Sterling-Winthrop Pharmaceuticals), Pirodavir (obtained from Janssen Pharmaceuticals), and Pleconaril (prepared according to the method described in Diana et al., J. Med. Chem 1995, vol. 38, 1355). Antiviral data obtained for the test compounds are shown in the Table, where all data are for HRV serotype-14 unless otherwise noted in parentheses.

[2] = test system: HRV-1A; assay: Antirhinoviral H1-HeLa cell culture assay (cell protection, XTT), HRV-1A; format: cell-based, human rhinovirus; settings: Rhinovirus A, HRV1A, 48 h, H1-HeLa cells, two days
Protocol: as §1, §2, §3, §4

[3] = Cytotoxicity in mock-infected H1-HeLa cells (XTT); format: cell-based; settings: human, two days, read-out: Toxicity CC50
Protocol: as §1, §2, §3

[4] = test system: HRV-14; assay: Antirhinoviral H1-HeLa cell culture assay (cell protection, XTT), HRV-14; format: cell-based, human rhinovirus; settings: Rhinovirus B, read-out: Cell Protection EC50
Protocol: as §1, §2, §3, §4

[5] = biological target: T1, rhinovirus 3C protease from HRV serotype-14 (Human rhinovirus 14, UniProt P03303); assay: Inhibition of rhinovirus 3C protease activity (FRET assay), HRV-14; format: biochemical; settings: read-out: Protease Inhibition kobs/I
T1 construct: Recombinant rhinovirus 3C proteases; made in house
T1 sequence (P03303 1538-1719): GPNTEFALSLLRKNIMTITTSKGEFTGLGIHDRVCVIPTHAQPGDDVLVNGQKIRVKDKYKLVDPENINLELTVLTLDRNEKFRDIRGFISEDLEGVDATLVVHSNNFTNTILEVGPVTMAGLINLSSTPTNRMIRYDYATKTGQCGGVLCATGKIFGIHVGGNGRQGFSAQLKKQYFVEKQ
How it was run: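 Recombinant 3C protease (50–100 nM) was assayed in 50 mM tris pH 7.6, 1 mM EDTA, 2% DMSO, with about 1 μM DABCYL-GRAVFQGPVG-EDANS FRET substrate. Cleavage was followed as the rise in fluorescence. kobs/[I] was derived from progress curves of enzyme-initiated reactions.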

[6] = HRV14, 48 h, HRV-14, H1-HeLa cells, XTT, two days
[7] = HRV-14 3C protease, progress curves, enzyme start

Row | EC50 [1] | EC50 [2] | EC50 [4, 6] | kinact/KI [5, 7] | Structure (SMILES) | CC50 at 2 days [3] | EC50 ([4]; HRV14, H1-HeLa, 48 h) | kinact/KI [5]
1 | 35 µM | 22 µM | 600 nM | 150 M⁻¹ s⁻¹ | CCOC(=O)/C=C/[C@H](CCC(N)=O)NC(=O)c1ccc2ccccc2c1 [Compound 25, 6-carbamoyl-4S-[(naphthalene-2-carbonyl)-amino]-hex-2-enoic acid ethyl ester] | > 100 µM | – | –
2 | – | – | – | – | CCOC(=O)/C=C/[C@H](C[C@@H]1CCNC1=O)NC(=O)c1cc2cc(Br)ccc2n1C [Compound 21, 4S-[(5-bromo-1-methyl-indole-2-carbonyl)-amino]-5-(2-oxo-pyrrolidin-3S-yl)-pent-2-enoic acid ethyl ester] | 17.8 µM | 3070 nM | 1320 M⁻¹ s⁻¹
3 | – | – | – | – | CCOC(=O)/C=C/[C@H](C[C@@H]1CCNC1=O)NC(=O)Nc1cccc2ccccc12 [Compound 56, 4S-(3-naphthalen-1-yl)-5-(2-oxo-pyrrolidin-3S-yl)-pent-2-enoic acid ethyl ester] | > 10 µM | > 10000 nM | 117 M⁻¹ s⁻¹
4 | – | – | – | – | CCOC(=O)/C=C/[C@H](C[C@@H]1CCNC1=O)NC(=O)/C=C/c1cccc(Br)c1 [Compound 3, 4S-[3-(3-bromo-phenyl)-acryloylamino]-5-(2-oxo-pyrrolidin-3S-yl)-pent-2-enoic acid ethyl ester] | > 10 µM | 1400 nM | 2560 M⁻¹ s⁻¹
5 | – | – | – | – | CCOC(=O)/C=C/[C@H](C[C@@H]1CCNC1=O)NC(=O)Nc1cc(OC)cc(OC)c1 [Compound 57, 4S-[3-(3,5-dimethoxy-phenyl)ureido]-5-(2-oxo-pyrrolidin-3S-yl)-pent-2-enoic acid ethyl ester] | > 10 µM | > 10000 nM | 388 M⁻¹ s⁻¹
6 | – | – | – | – | CCOC(=O)/C=C/[C@H](C[C@@H]1CCNC1=O)NC(=O)COc1ccc(Cl)c(Cl)c1 [Compound 62, 4S-[2-(3,4-dichloro-phenoxy)-acetylamino]-5-(2-oxo-pyrrolidin-3S-yl)-pent-2-enoic acid ethyl ester] | > 10 µM | 6100 nM | 134 M⁻¹ s⁻¹
7 | – | – | – | – | CCOC(=O)/C=C/[C@H](C[C@@H]1CCNC1=O)NC(=O)c1cc2cc(OC)c(OC)cc2n1C [Compound 19, 4S-[(5,6-dimethoxy-1-methyl-indole-2-carbonyl)-amino]-5-(2-oxo-pyrrolidin-3S-yl)-pent-2-enoic acid ethyl ester] | > 10 µM | 1360 nM | 1230 M⁻¹ s⁻¹
8 | – | – | – | – | CCOC(=O)/C=C/[C@H](C[C@@H]1CCNC1=O)NC(=O)C1=Cc2ccccc2OC1 [Compound 67, 4S-[(2H-chromene-3-carbonyl)-amino]-5-(2-oxopyrrolidin-3S-yl)-pent-2-enoic acid ethyl ester] | > 100 µM | 1190 nM | 886 M⁻¹ s⁻¹
9 | – | – | – | – | CCOC(=O)/C=C/[C@H](C[C@@H]1CCNC1=O)NC(=O)c1cc2cc(Br)ccc2[nH]1 [Compound 20] | > 10 µM | 4390 nM | 1370 M⁻¹ s⁻¹
10 | 12.4 µM | 59 µM | 1500 nM | 95 M⁻¹ s⁻¹ | CCOC(=O)/C=C/[C@H](CCC(N)=O)NC(=O)c1cc2ccccc2s1 [Compound 26, 4S-[(benzo[b]thiophene-2-carbonyl)-amino]-6-carbamoyl-hex-2-enoic acid ethyl ester] | > 100 µM | – | –

Row | Structure (SMILES) | EC50 [1] | EC50 [2] | EC50 [4, 6] | kinact/KI [5, 7] | CC50 at 2 days [3] | EC50 ([4]; HRV14, H1-HeLa, 48 h) | kinact/KI [5]
11 | CCOC(=O)/C=C/[C@H](C[C@@H]1CCNC1=O)NC(=O)/C=C/c1cc2c(cc1Br)OCO2 [Compound 49, 4S-[3-(6-Bromo-benzo[1,3]dioxol-5-yl)-acryloylamino]-5-(2-oxo-pyrrolidin-3S-yl)-pent-2-enoic acid ethyl ester] | 0.316 µM | 2.51 µM | – | – | > 100 µM | 490 nM | 14400 M⁻¹ s⁻¹
